Measured values reported in patent publication US20100113494A1, “13,13a-Dihydroberberine Derivatives For Use In Pharmaceutical Compositions” (SHANGHAI INSTITUTE OF MATERIA MEDICA, CHINESE ACADEMY OF …, priority 2006, published 2010).
Structures can show the parent of a compound that is named as a salt. Where two headings read alike, the source gives them in different places.

Experiments:
[1] = test system: C57BL/6J mice fed by high-fat diet; assay: intraperitoneal glucose tolerance test (ipGTT) in high-fat diet obese mice; format: in vivo; conditions: 100 mg/kg/day in high-fat diet for 2 weeks, glucose 2 g/kg intraperitoneally
Method: (§1) Ten mice per group were used to perform the efficacy study of the compounds. Dihydroberberine derivative 19 or its sulfate salt was mixed into the high-fat diet, and administered at a dose of 100 mg/kg/day for 2 weeks. After the mice were starved overnight, basal blood sugar value (0 min) was measured by taking blood from tail vein. Then the mice were injected glucose intraperitoneally at a dose of 2 g/kg according to the body weight of the mice in control group which were fed by normal diet followed by measuring blood sugar value at 15, 30, 45, 60, 90 and 120 min respectively and calculating the area under curve (AUC). The body weight and visceral fat of the mice were weighted, and the contents of fatty acid and triglyceride in the blood plasma of the mice were determined.
(§2) In FIGS. 2-4, CH-con means the normal mouse, HF-con refers to the obese mouse, HF-BBR19 is the obese mouse treated with dihydroberberine derivative 19 for 2 weeks, and HF-BBR19Y is the obese mouse treated with the sulfate salt of dihydroberberine derivative 19 for 2 weeks.
The mice which had been treated with dihydroberberine derivative 19 or its sulfate salt for 2 weeks and the mice in control group were intraperitoneally injected glucose at 2 g/kg after being starved overnight. […]

[2] = test system: C57BL/6J mice fed by high-fat diet; assay: body weight and visceral fat of high-fat diet obese mice; format: in vivo; conditions: 100 mg/kg/day for 2 weeks
Method: as §1, §2
Thus they may have a potential effect on treating obesity.

[3] = test system: C57BL/6J mice fed by high-fat diet; assay: free fatty acid and triglyceride in blood plasma of high-fat diet obese mice; format: in vivo; conditions: 100 mg/kg/day for 2 weeks
Method: as §1, §2

[4] = test system: C57BL/6J mice fed by high-fat diet; assay: mouse models with insulin resistance and obesity induced by a high-fat diet (experimental conclusion); format: in vivo; conditions: high-fat diet mouse model
Method: as §1

L6 muscle cells [5] = assay: glucose absorption model test in L6 muscle cells; format: cell-based
Method: (§3) In our study, the glucose transport rate in L6 muscle cells increased by about 3 times with 10 μM berberine hydrochloride. In a further glucose absorption model test in L6 muscle cells, the glucose absorption in L6 muscle cells increased by more than 2 times with […] berberine hydrochloride in 20 mM glucose medium. […] The improvement in glucose absorption induced by insulin was inhibited obviously, while that induced by berberine was not affected after the treatment with wortmannin, a specific inhibitor of insulin signaling pathway.

[6] = test system: insulin signaling pathway; assay: immunoblotting assay of L6 muscle cells, insulin signaling pathway; format: cell-based
AMPK = assay: immunoblotting assay of L6 muscle cells, AMPK; format: cell-based
p38 MAPK kinase = assay: immunoblotting assay of L6 muscle cells, p38 MAPK; format: cell-based
AMP:ATP ratio in cells = AMP:ATP ratio in cells by high performance liquid chromatography; format: cell-based; conditions: HPLC
HepG2 cells = conditions: 5-100 μmol of berberine; cited from earlier work
βTC3 cells = conditions: cited from earlier work
type 2 diabetic patients = conditions: cited from earlier work
[7] = test system: normal mice and alloxan-induced diabetic mice; conditions: Chen, Xie 1986, cited from earlier work
diabetic mice = conditions: Liu 1996; cited from earlier work
[8] = test system: insulin receptor genes and peroxisome proliferator activated receptor genes; conditions: Jiang, CN01121906.8; cited from earlier work
L6 muscle cells [9] = conditions: 400 μM; cited from earlier work
L6 muscle cells [10] = assay: model test on the glucose transport in L6 muscle cells; format: cell-based; conditions: 10 μM
Method: So, berberine belongs to non-insulin dependent glucose absorption enhancer in the peripheral tissues of the human body. […] In a model test on the glucose transport in L6 muscle cells, the transport rate of 3-methyl glucose in L6 muscle cells increased by about 0.5 times with 400 μM metformin hydrochloride. Berberine hydrochloride could achieve the same effect with less dosage than metformin in a model test on the glucose transport in L6 muscle cells in vitro.
as §3

## COc1ccc2c(c1OC)CN1CCc3cc4c(cc3C1=C2)OCO4 [Compound 19]
[1]
  glucose tolerance (ipGTT, area under curve): significantly improved
[2]
  increase in body weight versus control group: significantly less
  ratio of intra-abdominal (visceral) fat to body weight versus control group: lowered significantly
[3]; HF-Con 0.76±0.03
  content of free fatty acid (NEFA) in blood plasma: 0.6 ± 0.05 mmol/L
[3]; HF-Con 1.20±0.05
  content of triglyceride TG in blood plasma: 0.86 ± 0.08 mmol/L
[4]
  improving insulin resistance: significant effects
  relieving fatty liver: significant effects

## COc1ccc2cc3[n+](cc2c1OC)CCc1cc2c(cc1-3)OCO2 [berberine, Berberine]
L6 muscle cells [5]; Compound C and SB202190
  glucose absorption induced by berberine after treatment with AMPK and p38 MAPK specific inhibitors: obviously lowered
L6 muscle cells [5]; wortmannin, specific inhibitor of insulin signaling pathway
  glucose absorption induced by berberine after treatment with wortmannin: not affected
[6]
  effect on insulin signaling pathway: little effect
AMPK
  activity of AMPK: significantly reinforced
p38 MAPK kinase
  activity of p38 MAPK kinase: significantly reinforced
AMP:ATP ratio in cells
  AMP:ATP ratio in cells: increased significantly
HepG2 cells
  increase of glucose consumption in HepG2 cells: 32-60%
βTC3 cells
  stimulation of βTC3 cells to secrete insulin: did not stimulate
Type 2 diabetic patients; 20 cases not improved by D860, glibenclamide etc., 3 months, Zhang 1999
  fasting blood glucose levels of all patients: levels of all patients were lowered to normal levels 3 months
Type 2 diabetic patients; 20 cases, Zhang 1999
  side effects: dependent on dose, and no side effects such as hypoglycemia
Type 2 diabetic patients; 57 cases, berberine added after secondary failure of sulfonylurea alone or with metformin, 1 month, Wang 2002
  total efficiency: efficiency was 81%.
Type 2 diabetic patients; 60 cases, 1-3 months, Ni 1988
  adverse effect during the treatment: hemogram during the treatment and no obvious adverse effect
  average decrease of fasting blood glucose: that the fasting blood glucose decreased averagely by 5.1 mmol/L
Type 2 diabetic patients; 60 cases, Hu 1995
  toxic and/or adverse effects observed: patients with overweight recovered their normal weights. No
Type 2 diabetic patients; 68 cases, Shi 2000
  blood serum insulin levels after the treatment: The blood serum insulin levels of the patients increased
  total efficiency: significantly, and the total efficiency was 86.8%. The action
Type 2 diabetic patients; 75 cases, Yu 1994
  time to disappearance of polyuria, polydipsia and polyphagia for all patients: within two weeks after administration of berberine accompanying
Type 2 diabetic patients; Juan WANG 2004
  blood glucose levels, observed clinically: decreased
  blood serum insulin levels, observed clinically: increased
Type 2 diabetic patients; non-insulin dependent diabetic patients, 30 persons per group, 4 weeks, Yu, Yan 1995
  curative effect (blood glucose, blood serum insulin) compared with Diamicron group: showed that the two groups had similar curative effects and no
Type 2 diabetic patients; observed for 4 years, regardless of dose, Yu 1994
  patients observed with adverse effects or hypoglycemia: treated with berberine and observed for 4 years, and none of them
[7]; dose of 40 mg/kg
  effect on lowering blood glucose: atherosclerosis. It had a significant effect on lowering blood
[7]; normal mice and alloxan-induced diabetic mice
  lowering blood glucose levels: biguanides. It can lower blood glucose levels of both normal mice
Diabetic mice
  effect on reversing diabetic renal failure: has a significant effect on reversing diabetic renal failure and
[8]
  expressions of insulin receptor genes and peroxisome proliferator activated receptor genes: Berberine can interact with insulin receptors and increase

## CN(C)C(=N)N=C(N)N [metformin hydrochloride]
L6 muscle cells [9]
  increase of transport rate of 3-methyl glucose in L6 muscle cells: about 0.5 times

## COc1ccc2cc3[n+](cc2c1OC)CCc1cc2c(cc1-3)OCO2 [berberine hydrochloride]
L6 muscle cells [10]
  increase of glucose transport rate in L6 muscle cells: about 3 times
L6 muscle cells [5]; 5 berberine hydrochloride in 20 mM glucose medium
  increase of glucose absorption in L6 muscle cells: more than 2 times
